Patent publication US6492360B1, “Phthalazine derivatives phosphodiesterase 4 inhibitors” (Zambon Group S.p.A., priority 1998, dated 2002)
Counter-ions that a name gives are not always drawn.

What was measured:
Format in all cases: biochemical
PDE 4 = PDE 4 enzyme inhibition (SPA); conditions: PDE 4 purified from human PMNs; cAMP 1 μM
Procedure: a) Human Polymorphonuclear Leukocyte Isolation
The polymorphonuclear leukocytes (PMNs) were isolated from peripheral blood of healthy volunteers according to Boyum A. (Scand. J. Immunol., 1976, 5th suppl., 9). Briefly, the PMNs were purified by Ficoll-Paque gradient centrifugation followed by sedimentation on dextran and the erythrocyte contamination was eliminated by hypotonic lysis.
b) PDE 4 Enzyme Purification
The human PMNs were suspended in TRIS/HCl buffer (10 mM, pH 7.8) containing MgCl2 (5 mM), EGTA (4 mM), mercaptoethanol (5 mM), TRITON-X100 (1%), pepstatin A (1 μM), PMSF (100 μM) and leupeptin (1 μM), and homogenised by Polytron homogeniser. The homogenate was centrifuged at 25,000×g for 30 minutes at 4° C. and the PDE 4 enzyme was purified by ion exchange chromatography using the FPLC technique according to Schudt C. et al. (Naunyn-Schmidberg's Arch. Pharmacol., 1991, 334, 682). The supernatant was seeded on a UNO Q12 column (Bio-Rad) and the enzyme was eluted by sodium acetate linear gradient from 50 mM to 1M using a flow rate of 4.5 ml/minutes. The fractions containing enzymatic activity were pooled, dialysed against water and concentrated. The PDE 4 enzyme was stored at, −20° C. in the presence of ethylene glycol (30% v/v) until the use.
The enzyme activity was evaluated with a Scintillation Proximity Assay (SPA) kit (Amersham). The enzymatic reaction was performed in a final volume of 100 μl of TRIS/HCl buffer (50 mM, pH 7.5), MgCl2 (8.3 mM), EGTA (1.7 mM), cAMP (1 μM) and [^3H]cAMP (˜100.000 dpm) as tracer. The compounds of the invention, the reference ones or the vehicle were added at different concentrations. As reference compounds 6,7-dimethoxy-4-pyridin-4-yl-methyl)2H-phthalazin-1-one (reference 1) and 6,7-dimethoxy-4-(piperidin-4-yl-methyl)2H-phthalazin-1-one (reference 2) embraced by the general formula of the patent application EP-0 722 936 (in the name of Eisai) were used. The reaction was started by adding 1.5 μg protein and incubated for 40 minutes at 30° C. SPA beads (50 μl) containing 18 mM zinc sulphate were added to stop the reaction and after 20 minutes at room temperature the radioactivity was measured using a scintillation counter.
The IC50 value refers to the nanomolar concentration of the compound required to inhibit cyclic nucleotide hydrolysis by 50%, and it was calculated by non-linear regression analysis.

PDE 5 = target: T1, PDE 5 (Homo sapiens, UniProt O76074); test: PDE 5 enzyme inhibition (SPA); conditions: 10^−6 M; PDE 5 from human platelets; cGMP
T1 construct: The fractions containing the enzymatic activities (PDE 3 or PDE 5) were pooled; from tissue; host or cells: human platelets from platelet rich plasma of healthy volunteers
Procedure: (§1) a) Human Platelet Preparation
(§2) Human platelets were prepared from platelet rich plasma (PRP) obtained from healthy volunteers. The PRP was centrifuiged at 2,200 rpm for 15 minutes at 4° C. and the pellet was suspended in lysis solution (15 ml; 155 mM NH4Cl, 10 mM KHCO3 and 0.1 mM Na2EDTA, pH=7.4) and incubated for 10 minutes on ice-bath to remove the erythrocyte contamination. After centrifugation at 1,400 rpm for 10 minutes at 4° C., platelets were suspended in 10 ml of […], 5 mM KCl, 1 mM MgSO4, 10 mM glucose, 10 mM HEPES (pH 7.4) and 0.05 U/ml of hirudin, and stored at −20° C. until homogenisation. Platelets were thawed and 50 ml of 20 mM TRIS (pH=6.5) containing 5 mM β-mercapto-ethanol, 2 mM EDTA, 50 mM sodium acetate and 50 μM PMSF (homogenisation buffer) were added. The platelet suspension was then homogenised by a Polytron homogeniser (Polytron PT 1200) for 20 seconds. The homogenate was centrifuged at 14,500 rpm for 20 minutes at 4° C., and the supernatant was applied to an UNO Q12 column (Bio-Rad). The PDE 3 and PDE 5 were eluted by sodium acetate linear gradient from 0.05M to 1M using a flow rate of 4.5 ml/minutes. The fractions containing the enzymatic activities (PDE 3 or PDE 5) were pooled, dialysed against water and concentrated 10 times by ultrafiltration. The PDE 3 and PDE 5 fractions were stored at −20° C. in the presence of ethylene glycol (30% v/v) until use.
(§3) b) PDE 3 and PDE 5 Activity Assay
(§4) The enzyme activity was evaluated with a Scintillation Proximity Assay (SPA) kit (Amersham). The enzymatic reaction was performed in a final volume of 100 μl of TRIS/HCl buffer (50 mM, pH7.5), MgCl2 (8.3 mM), EGTA (1.7 mM), cAMP (for PDE 3 assay) or cGMP (for PDE 5 assay) (1 μM), [^3H]cAMP or [^3H]cGMP (10 μl ), and 10 μl of the compounds of the invention or vehicle. The reaction was started by adding the enzyme (1.0 μg) and incubated for 40 minutes at 30° C. SPA beads (50 μl) containing 18 mM zinc sulphate were added to stop the reaction and after 20 minutes at room temperature the radioacticity was measured using a scintillation counter.
(§5) The compounds were tested at 10^−6M and the results are expressed as percent of inhibition.

PDE 3 = target: T2, PDE 3 (Homo sapiens, UniProt Q14432); test: PDE 3 enzyme inhibition (SPA); conditions: 10^−6 M; PDE 3 from human platelets; cAMP
T2 construct: The fractions containing the enzymatic activities (PDE 3 or PDE 5) were pooled; from tissue; host or cells: human platelets from platelet rich plasma of healthy volunteers
T2 sequence (Q14432 whole entry): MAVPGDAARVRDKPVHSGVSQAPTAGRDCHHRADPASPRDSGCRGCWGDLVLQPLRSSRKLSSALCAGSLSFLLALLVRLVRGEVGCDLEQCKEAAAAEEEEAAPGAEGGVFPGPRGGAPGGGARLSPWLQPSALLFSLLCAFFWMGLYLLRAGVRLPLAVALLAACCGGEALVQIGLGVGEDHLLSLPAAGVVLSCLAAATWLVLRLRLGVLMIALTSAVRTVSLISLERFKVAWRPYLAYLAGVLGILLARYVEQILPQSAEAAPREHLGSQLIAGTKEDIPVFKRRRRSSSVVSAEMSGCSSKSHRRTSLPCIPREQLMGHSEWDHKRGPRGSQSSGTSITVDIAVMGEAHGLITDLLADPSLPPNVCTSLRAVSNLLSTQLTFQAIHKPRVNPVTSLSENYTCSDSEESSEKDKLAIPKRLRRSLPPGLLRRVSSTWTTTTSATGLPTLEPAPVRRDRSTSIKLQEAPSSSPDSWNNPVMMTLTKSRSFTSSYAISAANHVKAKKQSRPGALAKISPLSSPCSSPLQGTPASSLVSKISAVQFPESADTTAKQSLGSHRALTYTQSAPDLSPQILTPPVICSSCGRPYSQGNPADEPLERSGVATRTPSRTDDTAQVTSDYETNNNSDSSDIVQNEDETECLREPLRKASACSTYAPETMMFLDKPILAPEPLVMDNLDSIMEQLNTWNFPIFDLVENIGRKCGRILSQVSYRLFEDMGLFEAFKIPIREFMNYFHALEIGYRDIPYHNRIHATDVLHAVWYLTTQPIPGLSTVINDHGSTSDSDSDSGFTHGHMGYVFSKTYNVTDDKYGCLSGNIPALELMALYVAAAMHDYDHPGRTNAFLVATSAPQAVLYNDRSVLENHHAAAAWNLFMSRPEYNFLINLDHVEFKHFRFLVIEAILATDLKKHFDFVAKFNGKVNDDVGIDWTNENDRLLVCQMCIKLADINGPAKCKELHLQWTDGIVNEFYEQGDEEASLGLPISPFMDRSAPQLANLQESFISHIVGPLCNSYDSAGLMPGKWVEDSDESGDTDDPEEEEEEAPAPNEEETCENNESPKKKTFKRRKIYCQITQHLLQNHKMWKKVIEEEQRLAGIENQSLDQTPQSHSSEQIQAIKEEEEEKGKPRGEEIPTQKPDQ
Procedure: as §1, §2, §3, §4, §5

Row | Structure (SMILES) | IC50 (PDE 4) [µM] | inhibition at 1 µM (PDE 5) [%] | inhibition at 1 µM (PDE 3) [%]
1 | COc1ccc2c(Cc3c(Cl)cncc3Cl)nncc2c1C=CCCCc1ccccc1 [Compound 33, 1-(3,5-Dichloro-pyridin-4-ylmethyl)-6-methoxy-5-(5-phenyl-pent-1-enyl)phthalazine] | 0.019 ± 0.003 | – | –
2 | COc1ccc2c(Cc3c(Cl)cncc3Cl)nn(S(C)(=O)=O)c(=O)c2c1 [Compound 24, 4-(3,5-Dichloro-pyridin-4-methyl)-2-methanesulfonyl-7-methoxy-2H-phthalazin-1-one] | 0.036 ± 0.009 | – | –
3 | COc1ccc2c(c1)CN(C(=O)c1ccccc1)N=C2Cc1c(Cl)cncc1Cl [Compound 12, [4-(3,5-Dichloro-pyridin-4-ylmethyl)-7-methoxy-1H-phthalazin-2-yl]-phenyl-methanone] | 0.03 ± 0.008 | – | –
4 | COc1ccc2c(c1)CN(C(=O)C(C)C)N=C2Cc1c(Cl)cncc1Cl [Compound 11, 1-[4-(3,5-Dichloro-pyridin-4-ylmethyl)-7-methoxy-1H-phthalazin-2-yl]-2-methyl-propan-1-one] | 0.026 ± 0.003 | 10 | 17
5 | COc1ccc2c(Cc3c(Cl)cncc3Cl)nnc(-c3nccs3)c2c1 [Compound 26, 1-(3,5-Dichloro-pyridin-4-ylmethyl)-6-methoxy-4-thiazol-2-yl-phthalazine] | 0.014 ± 0.002 | 0 | –
6 | CCC(=O)N1Cc2cc(OC)ccc2C(Cc2c(Cl)cncc2Cl)=N1 [Compound 10, 1-[4-(3,5-Dichloro-pyridin-4-ylmethyl)-7-methoxy-1H-phthalazin-2-yl]-propan-1-one] | 0.028 ± 0.004 | – | –
7 | COc1ccc2c(c1)CN(C(N)=O)N=C2Cc1c(Cl)cncc1Cl [Compound 9, 4-(3,5-Dichloro-pyridin-4-ylmethyl)-7-methoxy-1H-phthalazine-2-carboxylic acid amide] | 0.036 ± 0.004 | – | –
8 | COc1ccc2c(Cc3c(Cl)cncc3Cl)nncc2c1C#CCCCN1CCOCC1 [Compound 36, 1-(3,5-Dichloro-pyridin-4-ylmethyl)-6-methoxy-5-(5-morpholin-4-yl-pent-1-ynyl)-phthalazine dihydrochloride] | 0.0964 ± 0.0073 | – | –
9 | CNC(=O)N1Cc2cc(OC)ccc2C(Cc2c(Cl)cncc2Cl)=N1 [Compound 17, 4-(3,5-Dichloro-pyridin-4-ylmethyl)-7-methoxy-1H-phthalazine-2-carboxylic acid methyl-amide] | 0.131 ± 0.024 | 21 | 12
10 | C#Cc1nnc(Cc2c(Cl)cncc2Cl)c2ccc(OC)cc12 [Compound 60, 1-(3,5-Dichloro-pyridin-4-ylmethyl)-4-ethynyl-6-methoxy-phthalazine] | 0.093 ± 0.029 | 1 | -2
11 | COc1ccc2c(Cc3c(Cl)cncc3Cl)nncc2c1C#CCO [Compound 37, 3-[1-(3,5-Dichloro-pyridin-4-ylmethyl)-6-methoxy-phthalazin-5-yl]-prop-2-yn-1-ol] | 0.061 ± 0.0024 | – | –
12 | CCn1nc(Cc2c(Cl)cncc2Cl)c2ccc(OC)cc2c1=O [Compound 20, 4-(3,5-Dichloro-pyridin-4-ylmethyl)-2-ethyl-7-methoxy-2H-phthalazin-1-one] | 0.158 ± 0.034 | 11 | 5
13 | COc1ccc2c(Cc3c(Cl)cncc3Cl)nn(CCc3ccccc3)c(=O)c2c1 [Compound 22, 4-(3,5-Dichloro-pyridin-4-ylmethyl)-7-methoxy-2-phenethyl-2H-phthalazin-1-one] | 0.225 ± 0.035 | 8 | 20
14 | COc1ccc2c(Cc3c(Cl)cncc3Cl)nn(CCCCCc3ccccc3)c(=O)c2c1 [Compound 23, 4-(3,5-Dichloro-pyridin-4-ylmethyl)-7-methoxy-2-(5-phenyl-pentyl)-2H-phthalazin-1-one] | 0.209 ± 0.026 | 21 | 19
15 | COC(=O)N1Cc2cc(OC)ccc2C(Cc2c(Cl)cncc2Cl)=N1 [Compound 16, 4-(3,5-Dichloro-pyridin-4-ylmethyl)-7-methoxy-1H-phthalazine-2-carboxylic acid methyl ester] | 0.072 ± 0.016 | – | –
16 | FC(F)Oc1ccc2c(Cc3c(Cl)cncc3Cl)nnc(N3CCOCC3)c2c1 [Compound 55, 1-(3,5-Dichloro-pyridin-4-ylmethyl)-6-difluoromethoxy-4-morpholin-4-yl-phthalazine] | 0.312 ± 0.048 | – | –
17 | COc1ccc2c(Cc3c(Cl)cncc3Cl)nncc2c1C#CCCCc1ccccc1 [Compound 32, 1-(3,5-Dichloro-pyridin-4-ylmethyl)-6-methoxy-5-(5-phenyl-pent-1-ynyl)-phthalazine] | 0.01 ± 0.002 | – | –
18 | FC(F)Oc1ccc2c(Cc3c(Cl)cncc3Cl)nnc(-n3cncn3)c2c1 [Compound 54, 1-(3,5-Dichloro-pyridin-4-ylmethyl)-6-difluoromethoxy-4-[1,2,4]triazol-1-yl-phthalazine] | – | 33 | 2
19 | COc1ccc2c(Cc3c(Cl)cncc3Cl)nnc(C#Cc3ccccc3)c2c1 [Compound 27, 1-(3,5-Dichloro-pyridin-4-ylmethyl)-6-methoxy-4-phenylethynyl-phthalazine] | 0.048 ± 0.012 | 9 | 15
20 | COc1ccc2c(c1)CN(S(C)(=O)=O)N=C2Cc1c(Cl)cncc1Cl [Compound 15, 4-(3,5-Dichloro-pyridin-4-ylmethyl)-2-methanesulfonyl-7-methoxy-1,2-dihydro-phthalazine] | 0.021 ± 0.004 | 0 | 15
21 | COc1ccc2c(Cc3c(Cl)cncc3Cl)nncc2c1C#CCN(C)Cc1ccccc1 [Compound 35, Benzyl-{3-[1-(3,5-dichloro-pyridin-4-ylmethyl)-6-methoxy-phthalazin-5-yl]-prop-2-ynyl}-methyl-amine dihydrochloride] | 0.0071 ± 0.0005 | – | –
22 | COc1ccc2c(c1)CN(C(=O)Cc1ccccc1)N=C2Cc1c(Cl)cncc1Cl [Compound 13, 1-[4-(3,5-Dichloro-pyridin-4-ylmethyl)-7-methoxy-1H-phthalazin-2-yl]-2-phenyl-ethanone] | 0.012 ± 0.002 | – | –
